Reference: patent publication US20260207535A1, “CRIBLAGE INHIBITEURS USP8” (COMMISSARIAT A L'ENERGIE ATOMIQUE ET AUX ENERGIES …, priority 2022, published 2026)

Assays:
POMC gene = test: POMC encoding gene expression (quantitative RT-PCR, normalized to HPRT); type: cell-based, mouse; settings: 10, 20, 30 and 36 μM, 24 hours, vs DMSO
Procedure: Each dot represents the amount of POMC encoding transcripts normalized to the amount of transcripts encoding the housekeeping gene HPRT and then compared to the DMSO control condition. Mean of technical triplicates with errors bars.
ACTH production depends on the activation of the proopiomelanocortin (POMC) gene encoding the ACTH precursor.
3.75×10^5 AtT20 cells were seeded on polylysine-coated 6-well culture microplates on 2.4 mL complete medium. After 24 hours, cells were treated with stock compounds to a final DMSO concentration of 0.5%. After 24 hours of treatment, cells were briefly rinsed with 37° C. DPBS (no calcium, no magnesium modification), lysed with the LBP reagent from the NucleoSpin® RNA Plus kit (Macherey-Nagel 740984.50) and then frozen at −70° C. before continuing with the RNA extraction protocol as per manufacturer's instructions. 1 μg RNA was used to synthesize cDNA using the AffinityScript QPCR cDNA Synthesis Kit (Agilent #600559). qPCR reaction was performed using the primers against the mouse POMC gene (5′-CCTCCTGCTTCAGACCTCCATAGAT-3′ and 5′-GTCTCCAGAGAGGTCGAGTTT). […] Detection was done using the Brilliant II SYBR® Green QPCR Master Mix (Agilent #600828), and readings were done using a Stratagene Mx3005P equipment.

USP8CD = biological target: T1, USP8CD (Homo sapiens, UniProt P40818); test: Reversibility (dilution / gel filtration) assay of USP8 inhibition; type: biochemical; settings: USP8CD 60 nM, activity before and after gel column filtration
T1 construct: an in-house purified catalytic domain of USP8 (USP8CD) was used at a concentration of 80 nM; made in house
T1 sequence (P40818 777-1109 limits assumed): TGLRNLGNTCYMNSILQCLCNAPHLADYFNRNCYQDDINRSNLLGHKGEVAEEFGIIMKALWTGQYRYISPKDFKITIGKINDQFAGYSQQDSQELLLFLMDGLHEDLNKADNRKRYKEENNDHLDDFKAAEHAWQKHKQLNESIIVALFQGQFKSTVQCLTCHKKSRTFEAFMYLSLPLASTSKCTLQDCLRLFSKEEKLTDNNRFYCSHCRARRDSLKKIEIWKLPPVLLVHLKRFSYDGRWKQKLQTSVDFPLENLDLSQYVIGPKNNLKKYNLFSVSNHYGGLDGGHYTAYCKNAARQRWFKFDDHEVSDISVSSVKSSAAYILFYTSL
Procedure: DUB activity relies on a conserved catalytic cysteine residue which is particularly sensitive to irreversible oxidation by reactive oxygen species (ROS) (Lee et al., 2013). […] In this setup, purified USP8CD was used at a concentration of 60 nM and incubated for 20 min with either the inhibitory compound or with DMSO in buffered conditions. The catalytic activity of each mix was monitored on Ub-Rho substrate (Ubiquigent ref. 60-0117-050) used at a final concentration of 0.1 μM before and after filtration on a gel column (Millipore UFC30GV25). If a catalytic activity is detected after column filtration, the compound is a reversible inhibitor.

Cc1cc(C(C#N)c2ccc(Cl)cc2)c(Cl)cc1NC(=O)c1cc(I)cc(I)c1O (centres unmarked) [Closantel, reference compound]
POMC mRNA species (FIG. 8) (POMC gene): strong decrease | reversibility of USP8 inhibition (USP8CD): reversible
